Source: US20250049747A1, “USE OF HYPERPOLARIZING AGENTS ALONE AND IN COMBINATION WITH OTHER THERAPEUTIC AGENTS FOR TREATING CANCERS INCLUDING GLIOBLASTOMA” (Trustees of Tufts College, priority 2021, published 2025)
Where “and” joins values, the source holds several entries; their conditions need not be identical. Identical values can stand only once.

Columns and labels:
[1] = breast cancer xenograft model in immunodeficient mice; cited from earlier work
[2] = tested on: NG108-15 cells; test: Antibody staining, BrdU and senescence assays in NG108-15 cells; type: cell-based, mouse/rat; conditions: NG108-15, 6 days
Experimental: Antibody Staining, BrdU and Senescence Assays. NG108-15 cells were plated on PEI and Matrigel coated plates at 15,000 or 30,000 cells/mL, U87 cells at 10,000 cells/mL and grown in imaging media for 6 days with drug treatment. Fresh media was added every 2 days. On day 6, cells were fixed with 4% formaldehyde in PBS for 30 minutes for all antibody staining, except for BrdU which was fixed for 15 minutes, and for the senescence assay which was fixed for 20 min using the Senescence Beta-Galactosidase Staining Kit (9860, CellSignaling) and thereafter stained according to manufacturer's protocol. After fixing, cells were washed twice with PBS, and were permeabilized in PBS with 0.3% Triton-X for 15 min then washed again twice with PBS. The cells for the BrdU assay were additionally treated with 1N HCl for 10 min on ice, followed by a treatment with 2N HCl for 50 min at room temp. Cells were then blocked with standard blocking buffer comprised of TBS containing 10% goat serum, 0.1% BSA, and with 0.05% Tween 20 or without detergent for antibodies against phosphorylated proteins or monoclonal antibodies except for Anti-YAP and Anti-BrdU staining, which were done according to manufacturer's protocol. Primary antibodies were added at the following concentrations: 1:250 anti-S100 beta (GTX129573, Genetex), 1:500 anti-GFAP (AB5804, EMD-Millipore), 1:300 anti-SOX10 (ab155279, Abcam), 1:100 MAP2 (4542, CellSignaling), 1:400 anti-cleaved caspase 3 (9661, CellSignaling), 1:300 anti-Cx43 (STJ2411, St. John's Labratory), 1:800 anti-p27^Kip1 (3698, CellSignaling), 1:150 anti-BrdU (5292, CellSignaling), 1:125 anti-LC3-II (2775, CellSignaling), 8 μg/mL anti-04 (MAB1326, R&D Systems), 1:1000 anti-TH (RPCA-TH, Encor), 1:4000 anti-NSE (RPCA-NSE, Encor), 1:4000 anti-NFM (RPCA-NF-M, Encor), 0.5 μg/mL anti-TujI (801202, Biolegend), 1:400 anti-NF-KB p65 (8242, CellSignaling), 1:125 anti-phospho CREB (05-807, EMD-Millipore), 1:250 anti-vimentin (ab92547, Abcam), 1:125 anti-YAP (14074, CellSignaling). Antibodies were diluted in their respective blocking buffer and incubated overnight at 4° C. The next day, cells were washed with TBS-T or TBS for 3× for 5 min each and secondary antibody was added as follows: 1:1000 donkey anti-mouse 647 (A-31571, Thermo-Fisher) or 1:1000 donkey anti-rabbit 647 (A-31573, Thermo-Fisher). Each were diluted in blocking buffer along with 2.5 μg/mL Hoechst 33342 and incubated for 1 hour at room temperature. Cells were then washed again with TBS-T or TBS for 3× for 5 min each and covered with Gelvatol. Cells were imaged with an EVOS M7000 system, with at least 50% of each well in a 96 well plate imaged and analyzed using a CellProfiler pipeline for measuring integrated intensity, mean intensity, or nuclear to cytoplasmic ratio of mean intensities.

[3] = Reported clinical pharmacokinetics and blood-brain barrier penetrance (literature); conditions: human, in vivo; pantoprazole 240 mg/day, if proportional to the 30 mg/day dose
[4] = tested on: U87 cells; test: Antibody staining, BrdU and senescence assays in U87 cells; type: cell-based, human; conditions: U87, 6 days
Experimental: Antibody Staining, BrdU and Senescence Assays. NG108-15 cells were plated on PEI and Matrigel coated plates at 15,000 or 30,000 cells/mL, U87 cells at 10,000 cells/mL and grown in imaging media for 6 days with drug treatment. Fresh media was added every 2 days. On day 6, cells were fixed with 4% formaldehyde in PBS for 30 minutes for all antibody staining, except for BrdU which was fixed for 15 minutes, and for the senescence assay which was fixed for 20 min using the Senescence Beta-Galactosidase Staining Kit (9860, CellSignaling) and thereafter stained according to manufacturer's protocol. After fixing, cells were washed twice with PBS, and were permeabilized in PBS with 0.3% Triton-X for 15 min then washed again twice with PBS. The cells for the BrdU assay were additionally treated with 1N HCl for 10 min on ice, followed by a treatment with 2N HCl for 50 min at room temp. Cells were then blocked with standard blocking buffer comprised of TBS containing 10% goat serum, 0.1% BSA, and with 0.05% Tween 20 or without detergent for antibodies against phosphorylated proteins or monoclonal antibodies except for Anti-YAP and Anti-BrdU staining, which were done according to manufacturer's protocol. […] Cells were imaged with an EVOS M7000 system, with at least 50% of each well in a 96 well plate imaged and analyzed using a CellProfiler pipeline for measuring integrated intensity, mean intensity, or nuclear to cytoplasmic ratio of mean intensities.

SMILES	toxicity on the heart or on normal breast epithelial cells [1]	cleaved caspase 3 staining [2]	size of the nuclei [2]	Cmax [3]	BrdU incorporation [2]	S100B and GFAP markers [2]	connexin 43 (Cx43) expression [2]	senescence-associated beta-galactosidase activity stain [2]	NFM and NSE [4]	YAP nuclear to cytoplasmic ratio [4]	astrocytic differentiation markers [4]
O=C(Nc1cc(C(F)(F)F)ccc1O)Nc1cc(C(F)(F)F)ccc1O [NS1643]	did not show any overt toxicity	decrease the cleaved caspase 3 positive cells significantly	significantly larger								
COc1ccnc(C[S+]([O-])c2nc3ccc(OC(F)F)cc3[nH]2)c1OC (stereo not shown) [Pantoprazole, pantoprazole]		significant increase in cleaved caspase 3 staining	significantly larger	42000 ng/mL and ~110 µM	significant decrease	significantly upregulated	increase in connexin 43 (Cx43) expression	very significant increase	increased	not to have a significant effect	increased
